Data from patent US5188642A, “Glyphosate-resistant plants” (priority 1990, dated 1993).

System: infected potato stem explants
Assay: Kanamycin selection of potato stem explants
Assay type: cell-based, potato (Russet Burbank)
Conditions: Kanamycin at 300 mg/l
Experimental: Potato--Shoot tips of virus-free Russet Burbank are subcultured on media containing MS major and minor salts, 0.17 g/l sodium dihygrogen phosphate, 0.4 mg/l thiamine hydrochloride, 0.1 g/l inositol, 3% sucrose, 1.5 g/l Gelrite™ (Kelco, Co ) at pH 5.6. Cultures are grown at 24C in a 16 hour photoperiod. Shoots are used approximately 3-4 weeks after subculturing. Stem internodes are cut into approximately 8 mm lengths and split lengthwise, then the cut surface is smeared with Agrobacterium carrying binary vector pMON542 and helper plasmid pTiT37-SE which had been streaked on an LB agar plate and grown for a few days. Stem sections are placed cut side down on the surface of the medium containing MS salts, MS organics, 3% sucrose, 2.25 mg/l BA, […] NAA, 10 mg/l GA, 1.5 g/l Gelrite at pH 5.6. After 4 days, the stem explants are transferred to the same medium but with carbenicillin at 500 mg/l and kanamycin as the selective agent at 0 or 300 mg/l. Two weeks after inoculation, the explants are moved onto medium of the same composition but without NAA.

## NC[C@H]1O[C@H](O[C@H]2[C@H](O)[C@@H](O[C@H]3O[C@H](CO)[C@@H](O)[C@H](N)[C@H]3O)[C@H](N)C[C@@H]2N)[C@H](O)[C@@H](O)[C@@H]1O [Kanamycin, kanamycin]
  swelling and callusing of explants: sufficient to prevent swelling and callusing of the infected explants without killing the tissue
